Values after ≈ are worked out from the molar mass of the structure shown.
Columns and labels:
Escherichia coli [1] = assay: Antimicrobial activity against Escherichia coli; type: functional
[2] = test system: Staphylococcus epidermidis; assay: Antimicrobial activity against Staphylococcus epidermidis; type: functional
Proteus mirabilis [3] = assay: Antimicrobial activity against Proteus mirabilis; type: functional
Pseudomonas aeruginosa [4] = assay: Antimicrobial activity against Pseudomonas aeruginosa; type: functional
Staphylococcus aureus [5] = assay: Antimicrobial activity against Staphylococcus aureus; type: functional
Aspergillus niger = assay: Antifungal activity against Aspergillus niger; type: functional
Candida albicans = assay: Antifungal activity against Candida albicans; type: functional
Bacillus subtilis [6] = assay: Potency index, ratio of ciprofloxacin MIC to test compound MIC for antimicrobial activity against Bacillus subtilis; type: functional
Bacillus subtilis [7] = assay: Antimicrobial activity against Bacillus subtilis; type: functional
Escherichia coli [8] = assay: Potency index, ratio of ciprofloxacin MIC to test compound MIC for antimicrobial activity against Escherichia coli; type: functional
Candida tropicalis = assay: Antifungal activity against Candida tropicalis; type: functional
Nakaseomyces glabratus = assay: Antifungal activity against Candida glabrata; type: functional
Pichia kudriavzevii = assay: Antifungal activity against Candida krusei
Klebsiella pneumoniae [9] = assay: Antimicrobial activity against Klebsiella pneumoniae; type: functional
Salmonella typhimurium = assay: Antimicrobial activity against Salmonella typhimurium; type: functional, Salmonella enterica subsp. enterica serovar Typhimurium; conditions: Salmonella enterica
Proteus vulgaris = assay: Antimicrobial activity against Proteus vulgaris; type: functional
Enterococcus faecalis = assay: Antimicrobial activity against Enterococcus faecalis; type: functional
Listeria monocytogenes = assay: Antimicrobial activity against Listeria monocytogenes; type: functional
Klebsiella pneumoniae [10] = assay: Antimicrobial activity against Klebsiella pneumoniae after 24 hrs by agar disk diffusion method; type: functional
Escherichia coli [11] = assay: Antimicrobial activity against Escherichia coli after 24 hrs by agar disk diffusion method; type: functional
Pseudomonas aeruginosa [12] = assay: Antimicrobial activity against Pseudomonas aeruginosa after 24 hrs by agar disk diffusion method; type: functional
Proteus mirabilis [13] = assay: Antimicrobial activity against Proteus mirabilis after 24 hrs by agar disk diffusion method; type: functional
Staphylococcus aureus [14] = assay: Antimicrobial activity against Staphylococcus aureus assessed as zone of inhibition at 0.001 mol/cm3; type: functional
Bacillus cereus [15] = assay: Antimicrobial activity against Bacillus cereus assessed as zone of inhibition at 0.001 mol/cm3; type: functional
Escherichia coli [16] = assay: Antimicrobial activity against Escherichia coli assessed as zone of inhibition at 0.001 mol/cm3; type: functional
Bacillus subtilis [17] = assay: Antimicrobial activity against Bacillus subtilis assessed as zone of inhibition at 100 ug/ml; type: functional; conditions: read-out: IZ
Escherichia coli [18] = assay: Antimicrobial activity against Escherichia coli assessed as zone of inhibition at 100 ug/ml; type: functional; conditions: read-out: IZ
Staphylococcus aureus [19] = assay: Antimicrobial activity against Staphylococcus aureus assessed as zone of inhibition at 100 ug/ml; type: functional; conditions: read-out: IZ
Streptococcus = assay: Antimicrobial activity against Streptococcus assessed as zone of inhibition at 100 ug/ml; type: functional; conditions: read-out: IZ
Bacillus cereus [20] = assay: Antimicrobial activity against Bacillus cereus; type: functional
[21] = test system: Talaromyces purpureogenus; assay: Antifungal activity against Penicillium purpurogenum; type: functional
Trichothecium roseum = assay: Antifungal activity against Trichothecium roseum; type: functional
Aspergillus flavus = assay: Antifungal activity against Aspergillus flavus; type: functional

SMILES: COc1ccc(C2=NN(C(N)=S)C(c3cc4ccc(C)cc4n4nnnc34)C2)cc1 (configuration not stated)
- MIC (Escherichia coli [1]): 3.12 to 25 µg/mL (≈ 7.49 to 59.9 µM)
- MIC [2]: 3.12 to 25 µg/mL (≈ 7.49 to 59.9 µM)
- MIC (Proteus mirabilis [3]): 3.12 to 25 µg/mL (≈ 7.49 to 59.9 µM)
- MIC (Pseudomonas aeruginosa [4]): 3.12 to 25 µg/mL (≈ 7.49 to 59.9 µM)
- MIC (Staphylococcus aureus [5]): 3.12 to 25 µg/mL (≈ 7.49 to 59.9 µM)
- MIC (Aspergillus niger): 3.12 to 25 µg/mL (≈ 7.49 to 59.9 µM)
- MIC (Candida albicans): 3.12 to 25 µg/mL (≈ 7.49 to 59.9 µM)

SMILES: COc1cccc(OC)c1/C=C1\SC(=O)N(Cc2ccc(-c3ccccc3-c3nnn[nH]3)cc2)C1=O
- Ratio (Bacillus subtilis [6]): >2.91
- MIC (Escherichia coli [1]): 8.58 µg/mL (≈ 17.2 µM)
- MIC (Bacillus subtilis [7]): 8.41 µg/mL (≈ 16.8 µM)
- Ratio (Escherichia coli [8]): >2.91

SMILES: Fc1cc2[nH]c(SCc3ccc(-c4ccccc4-c4nnnn4C(c4ccccc4)(c4ccccc4)c4ccccc4)cc3)nc2cc1-n1cncn1
- MIC (Escherichia coli [1]): 16 to 64 µg/mL (≈ 22.5 to 89.9 µM)
- MIC (Candida tropicalis): 16 to 64 µg/mL (≈ 22.5 to 89.9 µM)
- MIC (Nakaseomyces glabratus): 16 to 64 µg/mL (≈ 22.5 to 89.9 µM)
- MIC (Bacillus subtilis [7]): 16 to 64 µg/mL (≈ 22.5 to 89.9 µM)
- MIC (Pseudomonas aeruginosa [4]): 16 to 64 µg/mL (≈ 22.5 to 89.9 µM)
- MIC (Staphylococcus aureus [5]): 16 to 64 µg/mL (≈ 22.5 to 89.9 µM)
- MIC (Pichia kudriavzevii): 16 to 64 µg/mL (≈ 22.5 to 89.9 µM)
- MIC (Candida albicans): 16 to 64 µg/mL (≈ 22.5 to 89.9 µM)

SMILES: Cn1nnnc1SCC(=O)Nc1ccc(-c2nc3cc(Cl)c(Cl)cc3n2C)cc1
- MIC (Escherichia coli [1]): 12.5 to 400 µg/mL (≈ 27.9 to 892 µM)
- MIC (Klebsiella pneumoniae [9]): 12.5 to 400 µg/mL (≈ 27.9 to 892 µM)
- MIC (Candida tropicalis): 12.5 to 400 µg/mL (≈ 27.9 to 892 µM)
- MIC (Nakaseomyces glabratus): 12.5 to 400 µg/mL (≈ 27.9 to 892 µM)
- MIC (Salmonella typhimurium): 12.5 to 400 µg/mL (≈ 27.9 to 892 µM)
- MIC (Bacillus subtilis [7]): 12.5 to 400 µg/mL (≈ 27.9 to 892 µM)
- MIC (Proteus vulgaris): 12.5 to 400 µg/mL (≈ 27.9 to 892 µM)
- MIC (Enterococcus faecalis): 12.5 to 400 µg/mL (≈ 27.9 to 892 µM)
- MIC (Pseudomonas aeruginosa [4]): 12.5 to 400 µg/mL (≈ 27.9 to 892 µM)
- MIC (Staphylococcus aureus [5]): 12.5 to 400 µg/mL (≈ 27.9 to 892 µM)
- MIC (Listeria monocytogenes): 12.5 to 400 µg/mL (≈ 27.9 to 892 µM)
- MIC (Candida albicans): 12.5 to 400 µg/mL (≈ 27.9 to 892 µM)

SMILES: COc1ccc(C2=NN(C(N)=S)C(c3cc4cc(C)ccc4n4nnnc34)C2)cc1 (configuration not stated)
- MIC (Escherichia coli [1]): 3.12 to 25 µg/mL (≈ 7.49 to 59.9 µM)
- MIC [2]: 3.12 to 25 µg/mL (≈ 7.49 to 59.9 µM)
- MIC (Proteus mirabilis [3]): 3.12 to 25 µg/mL (≈ 7.49 to 59.9 µM)
- MIC (Pseudomonas aeruginosa [4]): 3.12 to 25 µg/mL (≈ 7.49 to 59.9 µM)
- MIC (Staphylococcus aureus [5]): 3.12 to 25 µg/mL (≈ 7.49 to 59.9 µM)
- MIC (Aspergillus niger): 3.12 to 25 µg/mL (≈ 7.49 to 59.9 µM)
- MIC (Candida albicans): 3.12 to 25 µg/mL (≈ 7.49 to 59.9 µM)

SMILES: CCC(C)n1ncn(-c2ccc(N3CCN(c4ccc(OCC5COC(Cn6cncn6)(c6ccc(Cl)cc6Cl)O5)cc4)CC3)cc2)c1=O (configuration not stated) [ITRACONAZOLE]
- MIC (Klebsiella pneumoniae [10]): 6.25 µg/mL (≈ 8.86 µM)
- MIC (Escherichia coli [11]): 6.25 µg/mL (≈ 8.86 µM)
- MIC (Pseudomonas aeruginosa [12]): 6.25 µg/mL (≈ 8.86 µM)
- MIC (Proteus mirabilis [13]): 6.25 µg/mL (≈ 8.86 µM)

SMILES: C[C@H]1COc2c(N3CCN(C)CC3)c(F)cc3c(=O)c(C(=O)O)cn1c23.C[C@H]1COc2c(N3CCN(C)CC3)c(F)cc3c(=O)c(C(=O)O)cn1c23.O [LEVOFLOXACIN]
- inhibition zone (IZ) (Staphylococcus aureus [14]): 28 - 30 mm
- inhibition zone (IZ) (Bacillus cereus [15]): 28 - 30 mm
- inhibition zone (IZ) (Escherichia coli [16]): 28 - 30 mm

SMILES: Cn1c(-c2ccc(NC(=O)CSc3nnnn3-c3ccccc3)cc2)nc2cc(Cl)c(Cl)cc21
- MIC (Escherichia coli [1]): 12.5 to 400 µg/mL (≈ 24.5 to 784 µM)
- MIC (Klebsiella pneumoniae [9]): 12.5 to 400 µg/mL (≈ 24.5 to 784 µM)
- MIC (Candida tropicalis): 12.5 to 400 µg/mL (≈ 24.5 to 784 µM)
- MIC (Nakaseomyces glabratus): 12.5 to 400 µg/mL (≈ 24.5 to 784 µM)
- MIC (Salmonella typhimurium): 12.5 to 400 µg/mL (≈ 24.5 to 784 µM)
- MIC (Bacillus subtilis [7]): 12.5 to 400 µg/mL (≈ 24.5 to 784 µM)
- MIC (Proteus vulgaris): 12.5 to 400 µg/mL (≈ 24.5 to 784 µM)
- MIC (Enterococcus faecalis): 12.5 to 400 µg/mL (≈ 24.5 to 784 µM)
- MIC (Pseudomonas aeruginosa [4]): 12.5 to 400 µg/mL (≈ 24.5 to 784 µM)
- MIC (Staphylococcus aureus [5]): 12.5 to 400 µg/mL (≈ 24.5 to 784 µM)
- MIC (Listeria monocytogenes): 12.5 to 400 µg/mL (≈ 24.5 to 784 µM)
- MIC (Candida albicans): 12.5 to 400 µg/mL (≈ 24.5 to 784 µM)

SMILES: Clc1cccc(-c2nnc(SCc3ccc(-c4ccccc4-c4nn[nH]n4)cc3)o2)c1
- zone of inhibition at 100 µg/mL (Bacillus subtilis [17]): 20 to 27 mm
- zone of inhibition at 100 µg/mL (Escherichia coli [18]): 20 to 27 mm
- zone of inhibition at 100 µg/mL (Staphylococcus aureus [19]): 20 to 27 mm
- zone of inhibition at 100 µg/mL (Streptococcus): 20 to 27 mm

SMILES: COc1ccc(/C=C2\SC(=O)N(Cc3ccc(-c4ccccc4-c4nnn[nH]4)cc3)C2=O)cc1
- Ratio (Bacillus subtilis [6]): >2.91
- MIC (Escherichia coli [1]): 7.7 µg/mL (≈ 16.4 µM)
- MIC (Bacillus subtilis [7]): 8.33 µg/mL (≈ 17.7 µM)
- Ratio (Escherichia coli [8]): >2.91

SMILES: N=C(N)Nc1nnn(Cc2cccc(Cn3nnc(C(=N)N)n3)c2)n1
- MIC (Bacillus cereus [20]): 30 to 40 µg/mL (≈ 87.9 to 117 µM)
- MIC (Escherichia coli [1]): 30 to 40 µg/mL (≈ 87.9 to 117 µM)
- MIC [21]: 30 to 40 µg/mL (≈ 87.9 to 117 µM)
- MIC (Trichothecium roseum): 30 to 40 µg/mL (≈ 87.9 to 117 µM)
- MIC (Bacillus subtilis [7]): 30 to 40 µg/mL (≈ 87.9 to 117 µM)
- MIC (Pseudomonas aeruginosa [4]): 30 to 40 µg/mL (≈ 87.9 to 117 µM)
- MIC (Aspergillus flavus): 30 to 40 µg/mL (≈ 87.9 to 117 µM)
